# The source made the active and inactive calls. The rule behind the calls is not given here.
# How the values were obtained:
# [1] = test system: ME-180; assay: Anticancer activity against human ME180 cells by MTT assay; format: functional, cell-based
# [2] = test system: A-375; assay: Anticancer activity against human A375 cells by MTT assay; format: functional, cell-based
# [3] = test system: DU-145; assay: Anticancer activity against human DU145 cells by MTT assay; format: functional, cell-based
# [4] = test system: A549; assay: Anticancer activity against human A549 cells by MTT assay; format: functional, cell-based
# [5] = test system: ME-180; assay: Cell cycle arrest in human ME180 cells assessed as accumulation at SubG1 phase at 0.5 uM after 48 hrs by FACS analysis (reference value: 7.0%); format: functional
# [6] = test system: ME-180; assay: Cell cycle arrest in human ME180 cells assessed as accumulation at G1 phase at 0.5 uM after 48 hrs by FACS analysis (reference value: 59.9%); format: functional
# [7] = test system: ME-180; assay: Cell cycle arrest in human ME180 cells assessed as accumulation at S phase at 0.5 uM after 48 hrs by FACS analysis (reference value: 19.3%); format: functional
# [8] = test system: ME-180; assay: Cell cycle arrest in human ME180 cells assessed as accumulation at G2/M phase at 0.5 uM after 48 hrs by FACS analysis (reference value: 13.2%); format: functional
# [9] = test system: ME-180; assay: Cell cycle arrest in human ME180 cells assessed as accumulation at SubG1 phase at 1 uM after 48 hrs by FACS analysis (reference value: 7.0%); format: functional
# [10] = test system: ME-180; assay: Cell cycle arrest in human ME180 cells assessed as accumulation at G1 phase at 1 uM after 48 hrs by FACS analysis (reference value: 59.9%); format: functional
# [11] = test system: ME-180; assay: Cell cycle arrest in human ME180 cells assessed as accumulation at S phase at 1 uM after 48 hrs by FACS analysis (reference value: 19.3%); format: functional
# [12] = test system: ME-180; assay: Cell cycle arrest in human ME180 cells assessed as accumulation at G2/M phase at 1 uM after 48 hrs by FACS analysis (reference value: 13.2%); format: functional
# [13] = test system: ME-180; assay: Induction of apoptosis in human ME180 cells assessed as cytoplasmic condensation at 1 uM for 24 hrs by Hoechst staining analysis; format: functional, cell-based
# [14] = test system: ME-180; assay: Induction of apoptosis in human ME180 cells assessed as presence of apoptotic bodies at 1 uM for 24 hrs by Hoechst staining analysis; format: functional, cell-based
# [15] = test system: ME-180; assay: Induction of apoptosis in human ME180 cells assessed as nuclear fragmentation at 1 uM for 24 hrs by Hoechst staining analysis; format: functional, cell-based
# [16] = test system: ME-180; assay: Induction of apoptosis in human ME180 cells assessed as DNA fragmentation at 1 uM after 48 hrs; format: functional, cell-based
# [17] = test system: ME-180; assay: Induction of apoptosis in human ME180 cells assessed as viable cells at 1 uM for 24 hrs by annexin V/PI staining based flow cytometry (reference value: 83.1%); format: functional; conditions: ME-180, 24 h, read-out: Activity
# [18] = test system: ME-180; assay: Induction of apoptosis in human ME180 cells assessed as early apoptotic cells at 1 uM for 24 hrs by annexin V/PI staining based flow cytometry (reference value: 0.2%); format: functional
# [19] = test system: ME-180; assay: Induction of apoptosis in human ME180 cells assessed as late apoptotic cells at 1 uM for 24 hrs by annexin V/PI staining based flow cytometry (reference value: 5%); format: functional
# [20] = test system: ME-180; assay: Induction of apoptosis in human ME180 cells assessed as necrotic cells at 1 uM for 24 hrs by annexin V/PI staining based flow cytometry (reference value: 11.7%); format: functional
# [21] = test system: ME-180; assay: Induction of apoptosis in human ME180 cells assessed as mitochondrial membrane depolarization at 1 uM for 24 hrs by using JC-1 dye; format: functional, cell-based
# [22] = test system: ME-180; assay: Induction to apoptosis in human ME180 cells assessed as increase in caspase-3 activity at 1 uM for 48 hrs relative to control; format: functional
# [23] = test system: ME-180; assay: Cell cycle arrest in human ME180 cells assessed as accumulation at G2/M phase at <1 uM; format: functional, cell-based
SMILES,IC50 [2],IC50 [3],IC50 [4],IC50 [1],further results
Cc1nn2c(-c3nc4ccccc4[nH]3)c(-c3ccc(F)cc3)nc2s1,22.2 µM,> 30 µM,> 30 µM,18.1 µM,–
Cc1ccc2[nH]c(-c3c(-c4ccc(F)cc4)nc4sc(C)nn34)nc2c1,7.7 µM,19.9 µM,11.7 µM,6.6 µM,–
Cc1nn2c(-c3nc4cc(C)c(C)cc4[nH]3)c(-c3ccccc3)nc2s1,22.5 µM,19.8 µM,> 30 µM,19.9 µM,–
Cc1nn2c(-c3nc4ccccc4[nH]3)c(-c3ccccc3)nc2s1,19.9 µM,> 30 µM,16.6 µM,16.9 µM,–
Cc1nn2c(-c3nc4cc(F)ccc4[nH]3)c(-c3ccccc3)nc2s1,18.1 µM,16.9 µM,> 30 µM,15.7 µM,–
COc1ccc(-c2nc3sc(C)nn3c2-c2nc3cc(C)c(C)cc3[nH]2)cc1,12.5 µM,23.3 µM,16.5 µM,12.3 µM,–
Cc1nn2c(-c3nc4cc(Cl)c(Cl)cc4[nH]3)c(-c3ccc(F)cc3)nc2s1,14.2 µM,> 30 µM,> 30 µM,10 µM,–
Cc1ccc(-c2nc3sc(C)nn3c2-c2nc3c(C)c(C)ccc3[nH]2)cc1,11.4 µM,12.5 µM,10.3 µM,9.7 µM,–
COC(=O)Nc1nc2cc(C(=O)c3cccs3)ccc2[nH]1 [NOCODAZOLE],0.2 µM,2.1 µM,2.5 µM,1.7 µM,–
COc1ccc(-c2nc3sc(C)nn3c2-c2nc3cc(C)ccc3[nH]2)cc1,10.9 µM,25.1 µM,18.4 µM,8.7 µM,–
Cc1nn2c(-c3nc4cc(Cl)c(F)cc4[nH]3)c(-c3ccccc3)nc2s1,20.8 µM,> 30 µM,16.4 µM,16.9 µM,–
Cc1nn2c(-c3nc4c(C)c(C)ccc4[nH]3)c(-c3ccccc3)nc2s1,22.9 µM,> 30 µM,18.4 µM,15.8 µM,–
Cc1ccc2[nH]c(-c3c(-c4ccccc4)nc4sc(C)nn34)nc2c1,20.4 µM,14.4 µM,12.5 µM,15.8 µM,–
Cc1nn2c(-c3nc4cc(O)ccc4[nH]3)c(-c3ccccc3)nc2s1,19.1 µM,20.6 µM,19.4 µM,16.4 µM,–
Cc1nn2c(-c3nc4cc(Cl)c(F)cc4[nH]3)c(-c3ccc(F)cc3)nc2s1,17.7 µM,> 30 µM,> 30 µM,13.9 µM,–
Cc1nn2c(-c3nc4cc(Cl)ccc4[nH]3)c(-c3ccccc3)nc2s1,7.7 µM,25.1 µM,16.9 µM,5.4 µM,–

# The next lines start with results.
IC50 [2],IC50 [3],IC50 [4],SMILES,IC50 [1],further results
6.8 µM,> 30 µM,17.9 µM,COc1ccc(-c2nc3sc(C)nn3c2-c2nc3cc(Cl)c(F)cc3[nH]2)cc1,4.6 µM,–
2.8 µM,19.1 µM,13.6 µM,Cc1nn2c(-c3nc4cc(Cl)c(Cl)cc4[nH]3)c(-c3ccccc3)nc2s1,0.5 µM,Activity [5]: 5.4%; Activity [6]: 68.1%; Activity [7]: 15.7%; Activity [8]: 10.4%; Activity [9]: 16.3%; Activity [10]: 72.4%; Activity [11]: 9.3%; Activity [12]: 1.6%; Activity [13]: Active; Activity [14]: Active; Activity [15]: Active; Activity [16]: Active; viability at 1 µM [17]: 58.7%; Activity [18]: 1%; Activity [19]: 22.6%; Activity [20]: 17.7%; Activity [21]: Active; fold change (FC) [22]: 3
5.8 µM,14.2 µM,16.2 µM,COc1ccc(-c2nc3sc(C)nn3c2-c2nc3c(C)c(C)ccc3[nH]2)cc1,3.7 µM,–
7.3 µM,15.8 µM,12.7 µM,Cc1nn2c(-c3nc4cc(C(F)(F)F)ccc4[nH]3)c(-c3ccc(F)cc3)nc2s1,5.8 µM,–
4.3 µM,15.8 µM,7.9 µM,COc1ccc(-c2nc3sc(C)nn3c2-c2nc3cc(Cl)ccc3[nH]2)cc1,2.6 µM,–
5.2 µM,19.6 µM,13.6 µM,Cc1nn2c(-c3nc4cc(C(F)(F)F)ccc4[nH]3)c(-c3ccccc3)nc2s1,3.9 µM,–
1.2 µM,2.4 µM,1.1 µM,COc1cccc2c1C(=O)c1c(O)c3c(c(O)c1C2=O)C[C@@](O)(C(=O)CO)C[C@@H]3O[C@H]1C[C@H](N)[C@H](O)[C@H](C)O1 [DOXORUBICIN],0.5 µM,Activity [9]: 7.7%; Activity [10]: 64.8%; Activity [11]: 16.1%; Activity [12]: 10.9%; Activity [23]: Active; Activity [16]: Active; viability at 1 µM [17]: 67.5%; Activity [18]: 0.7%; Activity [19]: 15.1%; Activity [20]: 16.8%; fold change (FC) [22]: 3
1.04 µM,11.8 µM,10.3 µM,Cc1ccc(-c2nc3sc(C)nn3c2-c2nc3cc(Cl)c(F)cc3[nH]2)cc1,0.7 µM,Activity [5]: 14.1%; Activity [6]: 66.6%; Activity [7]: 12.3%; Activity [8]: 6.7%; Activity [9]: 11.6%; Activity [10]: 75.7%; Activity [11]: 10.1%; Activity [12]: 2.3%; Activity [13]: Active; Activity [14]: Active; Activity [15]: Active; Activity [16]: Active; viability at 1 µM [17]: 73.1%; Activity [18]: 0.8%; Activity [19]: 16.5%; Activity [20]: 9.6%; Activity [21]: Active; fold change (FC) [22]: 3
4.8 µM,14.4 µM,10.2 µM,Cc1nn2c(-c3nc4cc(Cl)ccc4[nH]3)c(-c3ccc(F)cc3)nc2s1,1.9 µM,–
5.01 µM,7.3 µM,4.4 µM,Cc1ccc(-c2nc3sc(C)nn3c2-c2nc3cc(Cl)ccc3[nH]2)cc1,3.6 µM,–
6.1 µM,10.7 µM,9.8 µM,Cc1ccc(-c2nc3sc(C)nn3c2-c2nc3cc(C)ccc3[nH]2)cc1,4.5 µM,–
7.6 µM,> 30 µM,> 30 µM,Cc1nn2c(-c3nc4cc(C)c(C)cc4[nH]3)c(-c3ccc(F)cc3)nc2s1,6.1 µM,–
